Measured values taken from patent US10188634B2, “3-(3H-imidazo[4,5-C]pyridin-2-yl)-1 H-pyrazolo[4,3-B]pyridines and therapeutic uses thereof” (Samumed, LLC, priority 2015, dated 2019).

Assays:
Assay type in all cases: cell-based
SW480 colon cancer cells = experiment: Cell viability assay (CellTiter-Blue) in SW480 colon cancer cells; details: Homo sapiens, 96 h; for inhibition at 10 µM: four days, CellTiter-Blue, read-out: percent inhibition at 10 μM (given for EC50 of >10 μM); for EC50: four days incubation, CellTiter-Blue cell viability
Procedure, shortened: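 About 2×10^3 SW480 colon cancer cells per well were exposed to compound (8-point 1:3 dilutions, 10 μM to 0.004 μM) for four days at 37 °C. Viability was read by CellTiter-Blue resazurin reduction (~3 h, Ex 560/Em 590). EC50 from nonlinear regression; above 10 μM, % inhibition at 10 μM is reported.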

IL-6 in THP-1 cells = experiment: Inhibition of IL-6 in LPS-stimulated THP-1 human monocyte cells (HTRF); details: IL-6 HTRF; for EC50: 500 ng/mL LPS, 22 hours; for inhibition at 10 µM: LPS, read-out: percent inhibition in brackets (given for EC50 >10 μM)
Procedure, shortened: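 THP-1 cells, serum-reduced (1% FBS) for 24 h, were exposed to compound (1:3, 10-point series from 10 μM; 0.1% DMSO) for 2 h, then 500 ng/mL LPS for 22 h at 37° C. Secreted IL-6 measured by HTRF (665/620 ratio), normalised to DMSO; EC50 by four-parameter fit, else % inhibition at 10 μM.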

[1] = test system: LL29 cells (primary human fibroblasts derived from IPF patients) treated with TGF-β1, α-smooth muscle actin; experiment: Inhibition of the fibrotic process: αSMA staining in TGF-β1 treated primary human fibroblasts from IPF patients (LL29 cells); details: Fibroblast, 96 h; for EC50: LL29 cells treated with TGF-β1 (20 ng/mL), 4 days; for inhibition at 10 µM: LL29 cells treated with TGF-β1, 4 days, read-out: percent inhibition in brackets (given for EC50 >10 μM)

Compound	EC50 (SW480 colon cancer cells)	EC50 (IL-6 in THP-1 cells)	inhibition at 10 µM (SW480 colon cancer cells)	EC50 [1]	inhibition at 10 µM [1]	inhibition at 10 µM (IL-6 in THP-1 cells)
CS(=O)(=O)NCc1cc(F)cc(-c2cncc3[nH]c(-c4n[nH]c5ccc(-c6cncc(NC(=O)c7ccccc7)c6)nc45)nc23)c1 [Compound 459, N-(5-(3-(7-(3-Fluoro-5-(methylsulfonamidomethyl)phenyl)-3H-imidazo[4,5-c]pyridin-2-yl)-1H-pyrazolo[4,3-b]pyridin-5-yl)pyridin-3-yl)benzamide]	> 10 µM	> 10 µM	1.8%	> 10 µM	0%	0%
CCCC(=O)Nc1cncc(-c2ccc3[nH]nc(-c4nc5c(-c6cc(F)cc(CNS(C)(=O)=O)c6)cncc5[nH]4)c3n2)c1 [Compound 465, N-(5-(3-(7-(3-Fluoro-5-(methylsulfonamidomethyl)phenyl)-3H-imidazo[4,5-c]pyridin-2-yl)-1H-pyrazolo[4,3-b]pyridin-5-yl)pyridin-3-yl)butyramide]	> 10 µM	> 10 µM	1.8%	2.35 µM	–	28.6%
CS(=O)(=O)NCc1cc(F)cc(-c2cncc3[nH]c(-c4n[nH]c5ccc(-c6cncc(CNCc7ccccc7)c6)nc45)nc23)c1 [Compound 472, N-(3-(2-(5-(5-((Benzylamino)methyl)pyridin-3-yl)-1H-pyrazolo[4,3-b]pyridin-3-yl)-3H-imidazo[4,5-c]pyridin-7-yl)-5-fluorobenzyl)methanesulfonamide]	> 10 µM	> 10 µM	0%	7.27 µM	–	39.3%
CS(=O)(=O)NCc1cc(F)cc(-c2cncc3[nH]c(-c4n[nH]c5ccc(-c6cncnc6)nc45)nc23)c1 [Compound 475, N-(3-Fluoro-5-(2-(5-(pyrimidin-5-yl)-1H-pyrazolo[4,3-b]pyridin-3-yl)-3H-imidazo[4,5-c]pyridin-7-yl)benzyl)methanesulfonamide]	> 10 µM	> 10 µM	0.9%	2.44 µM	–	0%
Fc1cccc(-c2cncc3[nH]c(-c4n[nH]c5ccc(C6CCNCC6)nc45)nc23)c1 [Compound 477, 3-(7-(3-Fluorophenyl)-3H-imidazo[4,5-c]pyridin-2-yl)-5-(piperidin-4-yl)-1H-pyrazolo[4,3-b]pyridine]	> 10 µM	> 10 µM	1.8%	4.56 µM	–	13%

Continued, in another order:

EC50 (SW480 colon cancer cells)	EC50 (IL-6 in THP-1 cells)	Compound	inhibition at 10 µM (SW480 colon cancer cells)	EC50 [1]	inhibition at 10 µM [1]	inhibition at 10 µM (IL-6 in THP-1 cells)
> 10 µM	0.351 µM	Cc1ccc(-c2cncc3[nH]c(-c4n[nH]c5ccc(-c6cncc(NC(=O)C7CCCC7)c6)nc45)nc23)s1 [Compound 386, N-(5-(3-(7-(5-Methylthiophen-2-yl)-3H-imidazo[4,5-c]pyridin-2-yl)-1H-pyrazolo[4,3-b]pyridin-5-yl)pyridin-3-yl)cyclopentanecarboxamide]	0.9%	> 10 µM	0%	–
> 10 µM	8.05 µM	CCNCc1cncc(-c2ccc3[nH]nc(-c4nc5c(-c6cc(F)cc(NCCN(C)C)c6)cncc5[nH]4)c3n2)c1 [Compound 426, N^1-(3-(2-(5-(5-((Ethylamino)methyl)pyridin-3-yl)-1H-pyrazolo[4,3-b]pyridin-3-yl)-3H-imidazo[4,5-c]pyridin-7-yl)-5-fluorophenyl)-N^2,N^2-dimethylethane-1,2-diamine]	4.4%	5.09 µM	–	–
> 10 µM	> 10 µM	CCCCC(=O)Nc1cncc(-c2ccc3[nH]nc(-c4nc5c(-c6cc(F)cc(NCCN(C)C)c6)cncc5[nH]4)c3n2)c1 [Compound 439, N-(5-(3-(7-(3-((2-(Dimethylamino)ethyl)amino)-5-fluorophenyl)-3H-imidazo[4,5-c]pyridin-2-yl)-1H-pyrazolo[4,3-b]pyridin-5-yl)pyridin-3-yl)pentanamide]	1.3%	0.248 µM	–	31.5%
